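Briefly, cells in 96-well plates were exposed to five compound concentrations for 48 h, and endpoints were estimated by linear interpolation. The concentration for full growth arrest is given as TGI.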
Key:
Assay in all cases: DTP human tumour cell line panel, 48 h
HL-60(TB) leukemia = system: HL-60(TB) leukemia
HOP-92 NSCLC = system: HOP-92 NSCLC
HS 578T breast = system: HS 578T breast
M14 melanoma = system: M14 melanoma
MDA-MB-231 breast = system: MDA-MB-231 breast
NCI-H226 lung = system: NCI-H226 lung
NCI-H522 lung = system: NCI-H522 lung
NCI/ADR-RES ovarian = system: NCI/ADR-RES ovarian
OVCAR-8 ovarian = system: OVCAR-8 ovarian
TK-10 renal = system: TK-10 renal

| Structure (SMILES) | TGI (HL-60(TB) leukemia) | TGI (HOP-92 NSCLC) | TGI (HS 578T breast) | TGI (M14 melanoma) | TGI (MDA-MB-231 breast) | TGI (NCI-H226 lung) | TGI (NCI-H522 lung) | TGI (NCI/ADR-RES ovarian) | TGI (OVCAR-8 ovarian) | TGI (TK-10 renal) |
| --- | --- | --- | --- | --- | --- | --- | --- | --- | --- | --- |
| COc1cc2oc(-c3ccc4c(c3)OCO4)c(OC)c(=O)c2c(O)c1OC | > 50 µM | > 50 µM | > 50 µM | > 50 µM | > 50 µM | > 50 µM | > 50 µM | > 50 µM | > 50 µM | > 50 µM |
| CC(C)(C)C(=O)N1CCN(C=O)C1=S | > 100 µM | 52.9 µM | > 100 µM | > 100 µM | > 100 µM | > 100 µM | > 100 µM | > 100 µM | > 100 µM | > 100 µM |
| CC(C)(CN1CCCCC1)C(/C=C/c1ccccc1)=N\NC(=O)N/N=C(/C=C/c1ccccc1)C(C)(C)CN1CCCCC1 | 2.86 µM | 3.76 µM | 5.92 µM | 3.19 µM | 2.81 µM | 5.27 µM | 3.35 µM | 4.01 µM | 3.38 µM | 3.36 µM |
| COc1ccc(OC)c(C[P+](c2ccccc2)(c2ccccc2)c2ccccc2)c1 | 3.29 µM | 4.39 µM | 8.45 µM | 18.3 µM | 34.9 µM | > 61.4 µM | > 39.4 µM | > 100 µM | > 65.3 µM | > 92.6 µM |
| C/C(=N/NC(=S)N1CCN(C(=S)N/N=C(/C)c2ccccn2)CC1)c1ccccn1 | 1.98 µM | > 100 µM | > 83.8 µM | 38.5 µM | > 100 µM | > 74.5 µM | 99.2 µM | > 45.8 µM | > 100 µM | > 100 µM |
| Cc1ccc(NC2=N/C(=C/c3ccco3)C(Cl)=N2)cc1 | > 100 µM | > 100 µM | > 100 µM | > 100 µM | > 100 µM | > 100 µM | > 100 µM | > 100 µM | > 100 µM | > 100 µM |
| CC(=O)NC(=O)NC1=NCCC(=O)N1CCc1c[nH]c2ccccc12 | > 100 µM | > 100 µM | > 100 µM | > 100 µM | > 100 µM | > 100 µM | > 100 µM | > 100 µM | > 100 µM | > 100 µM |
| COc1cc2c(c(OC)c1)C(=O)O[C@H](C)CCCC/C=C/C2 | 4.45 µM | 25.7 µM | > 100 µM | > 32.2 µM | > 31.9 µM | > 95.8 µM | 24 µM | > 77.2 µM | > 100 µM | > 33.8 µM |
| Cc1nc(Nc2nc3ccccc3[nH]2)nc(Cl)c1CCCl | > 100 µM | 90.3 µM | > 100 µM | > 100 µM | > 100 µM | > 100 µM | > 100 µM | > 100 µM | > 100 µM | > 100 µM |
| O=[N+]([O-])c1ccc2c(c1)n1c(N3CCCC3)[n+]3ccccc3c1c1c3cccc[n+]3c(N3CCCC3)n21 | 94.1 µM | > 100 µM | > 100 µM | > 100 µM | > 100 µM | > 100 µM | > 100 µM | > 100 µM | > 100 µM | > 100 µM |
| Cc1ccc(/C=N\NC(=O)c2ccncc2)s1 | > 100 µM | > 100 µM | > 100 µM | > 100 µM | > 100 µM | > 100 µM | > 100 µM | > 100 µM | > 100 µM | > 100 µM |
| C=C(CCOC)CCC1CCCCC(=C)[C@H]1O (stereo not given in full) | > 100 µM | > 100 µM | > 100 µM | > 100 µM | > 100 µM | > 100 µM | > 100 µM | > 100 µM | > 100 µM | > 100 µM |
| CN(C)CCNC(=O)c1cc(NC(=O)c2cc(NC(=O)CC/C=C3/[C@@H]4CC[C@H]3N=N4)cn2C)cn1C | > 100 µM | > 100 µM | > 100 µM | > 100 µM | > 100 µM | > 100 µM | > 100 µM | > 100 µM | > 100 µM | > 100 µM |
| CNC(=O)N(CCC#N)CCCN(C(=O)N(C)C)c1ccccc1 | > 100 µM | > 100 µM | > 100 µM | > 100 µM | > 100 µM | > 100 µM | > 100 µM | > 100 µM | > 100 µM | > 100 µM |
| O=c1[nH]c2cc([N+](=O)[O-])c(Nc3c4ccccc4nc4ccccc34)c([N+](=O)[O-])c2[nH]1 | 9.39 µM | 18.5 µM | > 28.9 µM | 5.14 µM | 17.5 µM | 15 µM | 3.63 µM | 10.9 µM | 16.3 µM | 6.85 µM |
| COc1cc(C)cc2c(-c3c(O)cc(O)c4c3C[C@H](C)N[C@H]4C)cc(-c3cc(-c4c(O)cc(O)c5c4C[C@H](C)N[C@H]5C)c4cc(C)cc(OC)c4c3O)c(O)c12 | > 100 µM | > 100 µM | > 100 µM | > 100 µM | > 100 µM | > 100 µM | > 100 µM | > 100 µM | > 100 µM | > 100 µM |
